Measurements as given in ChEMBL document CHEMBL5257035, “Nucleoside Derived Antibiotics to Fight Microbial Drug Resistance: New Utilities for an Established Class of Drugs?” (J Med Chem, 2016).
Converted amounts (≈) assume the structure as drawn.

Key:
Bacillus subtilis = assay: Antibacterial activity against Bacillus subtilis ATCC 6633 assessed as bacterial growth inhibition by agar diffusion method; format: functional
[1] = Toxicity in rat; settings: in vivo
Candida albicans = assay: Inhibition of Candida albicans chitin synthase at 1 uM relative to control
[2] = biological target: T1, Phospho-N-acetylmuramoyl-pentapeptide-transferase (Escherichia coli, UniProt E2QF15); assay: Inhibition of MraY in Escherichia coli
T1 sequence (E2QF15 whole entry): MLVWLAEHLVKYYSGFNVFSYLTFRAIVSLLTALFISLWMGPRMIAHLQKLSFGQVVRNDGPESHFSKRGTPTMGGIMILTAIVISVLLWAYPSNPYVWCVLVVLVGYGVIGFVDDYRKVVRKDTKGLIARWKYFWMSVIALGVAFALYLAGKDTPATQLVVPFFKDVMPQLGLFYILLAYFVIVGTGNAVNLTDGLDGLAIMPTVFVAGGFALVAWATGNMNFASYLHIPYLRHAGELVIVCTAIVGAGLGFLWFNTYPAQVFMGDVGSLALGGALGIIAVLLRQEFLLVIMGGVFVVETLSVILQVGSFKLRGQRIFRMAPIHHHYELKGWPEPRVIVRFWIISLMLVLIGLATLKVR

[3] = Inhibition of Bacterial MraY; parameters: species or system Bacteria

| Compound | MIC (Bacillus subtilis) [µg/mL] | LD50 [1] [mg/kg] | IC50 [2] [µM] | further results |
| --- | --- | --- | --- | --- |
| CC(=O)N[C@H]1[C@H](O[C@@H]2O[C@H](C[C@@H](C)[C@H]3O[C@@H](n4ccc(=O)[nH]c4=O)[C@H](O)[C@@H]3O)[C@H](O)[C@H](O)[C@H]2NC(=O)/C=C/CCCCCCCCCCCC(C)C)O[C@@H](CO)[C@H](O)[C@@H]1O | 0.1 (≈ 0.117 µM) | 0.137 |  |  |
| NC(=O)[C@H](O)[C@@H](O)C(=O)NC[C@H]1O[C@@H](n2ccc(=O)[nH]c2=O)[C@H](O)[C@@H]1O |  |  |  | inhibition (Candida albicans): 12% |
| CCC(C)CCCCCCCCCCCC/C=C/C(=O)N[C@H]1[C@H](O[C@@H]2O[C@@H](CO)[C@H](O)[C@H](O)[C@H]2NC(C)=O)O[C@H](C[C@@H](C)[C@H]2O[C@@H](n3ccc(=O)[nH]c3=O)[C@H](O)[C@@H]2O)[C@H](O)[C@@H]1O (stereo not given in full) | 0.1 (≈ 0.113 µM) | 0.137 |  |  |
| NC[C@H]1O[C@@H](O[C@@H](Cn2cc(Cc3ccc(COc4ccc(C(=O)c5ccccc5)cc4)cc3)nn2)[C@H]2O[C@@H](n3ccc(=O)[nH]c3=O)[C@H](O)[C@@H]2O)[C@H](O)[C@@H]1O |  |  | 8 |  |
| N=C(N)NC[C@H]1O[C@@H](OC[C@H]2O[C@@H](n3ccc(=O)[nH]c3=O)[C@H](O)[C@@H]2O)[C@H](O)[C@@H]1O |  |  | 25 |  |
| CCC(C)CCCCCCCCCCCCCCC(=O)N[C@H]1[C@H](O[C@@H]2O[C@@H](CO)[C@H](O)[C@H](O)[C@H]2NC(C)=O)O[C@H](C[C@@H](C)[C@H]2O[C@@H](n3ccc(=O)[nH]c3=O)[C@H](O)[C@@H]2O)[C@H](O)[C@@H]1O (stereo not given in full) | 0.1 (≈ 0.113 µM) | 0.137 |  |  |
| CC(=O)N[C@H]1[C@H](O[C@@H]2O[C@H](C[C@@H](C)[C@H]3O[C@@H](n4ccc(=O)[nH]c4=O)[C@H](O)[C@@H]3O)[C@H](O)[C@H](O)[C@H]2NC(=O)CCCCCCCCCCCCC(C)C)O[C@@H](CO)[C@H](O)[C@@H]1O | 0.1 (≈ 0.118 µM) | 0.137 |  |  |
| NC[C@H]1O[C@@H](O[C@@H](Cc2cn(CCCCCCCCCCOc3ccc(C(=O)c4ccccc4)cc3)nn2)[C@H]2O[C@@H](n3ccc(=O)[nH]c3=O)[C@H](O)[C@@H]2O)[C@H](O)[C@@H]1O |  |  | 8 |  |
| CCC(C)CCCCCCCCCCCCC(=O)N[C@H]1[C@H](O[C@@H]2O[C@@H](CO)[C@H](O)[C@H](O)[C@H]2NC(C)=O)O[C@H](C[C@@H](C)[C@H]2O[C@@H](n3ccc(=O)[nH]c3=O)[C@H](O)[C@@H]2O)[C@H](O)[C@@H]1O (stereo not given in full) | 0.1 (≈ 0.116 µM) | 0.137 |  |  |
| N=CNC[C@H]1O[C@@H](OC[C@H]2O[C@@H](n3ccc(=O)[nH]c3=O)[C@H](O)[C@@H]2O)[C@H](O)[C@@H]1O |  |  | 25 |  |
| O=C(NCCNC(=O)[C@@H](O)[C@H](O)C(=O)NC[C@H]1O[C@@H](n2ccc(=O)[nH]c2=O)[C@H](O)[C@@H]1O)[C@@H](O)[C@H](O)C(=O)NC[C@H]1O[C@@H](n2ccc(=O)[nH]c2=O)[C@H](O)[C@@H]1O |  |  |  | inhibition (Candida albicans): 5% |
| NC[C@H]1O[C@@H](O[C@@H](Cn2cc(CCCCCCCCCCc3ccccc3)nn2)[C@H]2O[C@@H](n3ccc(=O)[nH]c3=O)[C@H](O)[C@@H]2O)[C@H](O)[C@@H]1O |  |  | 8 |  |
| CC(=O)N[C@H]1[C@H](O[C@@H]2O[C@H](C[C@@H](C)[C@H]3O[C@@H](n4ccc(=O)[nH]c4=O)[C@H](O)[C@@H]3O)[C@H](O)[C@H](O)[C@H]2NC(=O)CC(O)CCCCCCCCCCC(C)C)O[C@@H](CO)[C@H](O)[C@@H]1O (stereo not given in full) | 0.1 (≈ 0.116 µM) | 0.137 |  |  |
| CSCC[C@H](NC(=O)N[C@@H](Cc1c[nH]c2ccccc12)C(=O)O)C(=O)N[C@@H](CN(C)C(=O)[C@@H](N)Cc1cccc(O)c1)C(=O)N/C=C1/C[C@@H](O)[C@H](n2ccc(=O)[nH]c2=O)O1 | 12.5 (≈ 14.7 µM) |  |  |  |
| CO[C@H]1[C@@H](OC)[C@H](n2ccc(=O)[nH]c2=O)O[C@@H]1[C@@H](O[C@@H]1OC(C(=O)NCCSSCCNC(C)=O)=C[C@@H](O)[C@H]1O)C(N)=O |  |  | 0.01 |  |
| O=C(NC[C@H]1O[C@@H](n2ccc(=O)[nH]c2=O)[C@H](O)[C@@H]1O)[C@@H](O)[C@H](O)C(=O)NC[C@H]1O[C@@H](n2ccc(=O)[nH]c2=O)[C@H](O)[C@@H]1O |  |  |  | inhibition (Candida albicans): 35% |
| NC[C@H]1O[C@@H](O[C@@H](Cc2cn(Cc3ccc(COc4ccc(C(=O)c5ccccc5)cc4)cc3)nn2)[C@H]2O[C@@H](n3ccc(=O)[nH]c3=O)[C@H](O)[C@@H]2O)[C@H](O)[C@@H]1O |  |  | 8 |  |
| CO[C@H]1[C@@H](O)[C@H](n2ccc(=O)[nH]c2=O)O[C@@H]1C(OC1OC(C(=O)Nc2ccc(C(O)C(O)C(=O)N/C=C/C(=O)NCC(=O)O)cc2)=CC(O)C1O)C(N)=O (stereo not given in full) |  |  |  | IC50 [3]: 0.011 µM |
| NC(=O)[C@@H](O)[C@H](O)C(=O)NC[C@H]1O[C@@H](n2ccc(=O)[nH]c2=O)[C@H](O)[C@@H]1O |  |  |  | inhibition (Candida albicans): 20% |
